The text below walks through data of PubChem BioAssay (NCI).

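Test compounds were applied to cells in 96-well plates for 48 hours at 5 doses. GI50 = concentration required for 50% inhibition of growth. Definition used: TGI = concentration required for complete inhibition of growth.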 A value given as a limit tells only on which side of the number the result lay.

Some test systems named below: CCRF-CEM leukemia; COLO 205 colon; HOP-92 NSCLC; HS 578T breast; HT29 colon; M14 melanoma; MCF7 breast; NCI-H23 lung; NCI-H522 lung; SNB-19 CNS.
Assay in all cases: NCI-60 cell line screen, 48 h

In the case of `CCN(Cc1ccccc1)c1ccc(CO)c(Cl)c1`, the GI50 was 23.3 µM in the experiment with CCRF-CEM leukemia; 1.74 µM with COLO 205 colon; 1.67 µM with HOP-92 NSCLC; 23.2 µM in the experiment with HS 578T breast; 3.07 µM in the experiment with HT29 colon; 20.1 µM in the experiment with M14 melanoma. The GI50 in the experiment with MCF7 breast was 0.338 µM; in the experiment on NCI-H23 lung it was 9.44 µM; in the experiment on NCI-H522 lung, 17.4 µM; in the experiment with SNB-19 CNS it was 51.4 µM. For the same molecule, the TGI in the experiment on CCRF-CEM leukemia is more than 100 µM; with COLO 205 colon, 4.51 µM; in the experiment with HOP-92 NSCLC, 15.3 µM; with HS 578T breast, more than 84.9 µM; in the experiment with HT29 colon, 36.3 µM; in the experiment on M14 melanoma it was more than 65.1 µM. The TGI is 25.9 µM with MCF7 breast, more than 86 µM with NCI-H23 lung, 63.4 µM in the experiment on NCI-H522 lung and more than 100 µM in the experiment with SNB-19 CNS.
Take `COc1ccc(-c2cc(-c3ccc(Cl)cc3)nc(SCCCC(=O)NO)n2)cc1`: the GI50 is 0.222 µM with CCRF-CEM leukemia; 1.69 µM in the experiment on COLO 205 colon; 1.8 µM in the experiment with HOP-92 NSCLC; 2.08 µM in the experiment with HS 578T breast; 1.41 µM with HT29 colon; 0.786 µM in the experiment on M14 melanoma. Besides, the GI50 in the experiment with MCF7 breast was 1.81 µM; in the experiment on NCI-H23 lung, 1.43 µM; in the experiment on NCI-H522 lung, 0.704 µM; in the experiment with SNB-19 CNS, 2.18 µM. For the same molecule, the TGI with CCRF-CEM leukemia was more than 100 µM; in the experiment on COLO 205 colon, 4.4 µM; in the experiment with HOP-92 NSCLC, 5.07 µM; in the experiment with HS 578T breast, 11.2 µM; in the experiment on HT29 colon, 3.77 µM; with M14 melanoma it was 3.12 µM. Moreover, the TGI in the experiment on MCF7 breast is 7.43 µM; with NCI-H23 lung, 7.06 µM; with NCI-H522 lung, 3.26 µM; with SNB-19 CNS, more than 27.1 µM.
Regarding `CCC(=O)Nc1ccccc1C#C/C=C\C#Cc1ccccc1SC`, the GI50 is 2.75 µM in the experiment on CCRF-CEM leukemia; 9.84 µM in the experiment on COLO 205 colon; 3.96 µM in the experiment with HOP-92 NSCLC; 17.1 µM with HS 578T breast; 5.2 µM in the experiment with HT29 colon; 12 µM with M14 melanoma. In addition, the GI50 is 3.39 µM in the experiment on MCF7 breast, 22.7 µM in the experiment with NCI-H23 lung, 8.89 µM with NCI-H522 lung and 43.8 µM in the experiment on SNB-19 CNS. The TGI in the experiment on CCRF-CEM leukemia was 23.7 µM; in the experiment with COLO 205 colon it was more than 100 µM; in the experiment on HOP-92 NSCLC, 78.7 µM; in the experiment with HS 578T breast, more than 100 µM; with HT29 colon, more than 100 µM; in the experiment on M14 melanoma, more than 100 µM. Besides, the TGI in the experiment with MCF7 breast was 29.7 µM; in the experiment on NCI-H23 lung, more than 100 µM; in the experiment with NCI-H522 lung it was more than 100 µM; with SNB-19 CNS it was more than 100 µM.
With `c1cc(N2CCCN(c3ccc(C4=NCCCN4)cc3)CC2)ccc1C1=NCCCN1`, the GI50 is more than 100 µM in the experiment with CCRF-CEM leukemia; more than 100 µM in the experiment with COLO 205 colon; more than 100 µM in the experiment on HOP-92 NSCLC; 77.7 µM in the experiment with HS 578T breast; more than 100 µM in the experiment on HT29 colon; more than 100 µM in the experiment on M14 melanoma. The GI50 with MCF7 breast, with NCI-H23 lung, in the experiment on NCI-H522 lung and with SNB-19 CNS was more than 100 µM throughout. The TGI with CCRF-CEM leukemia, in the experiment on COLO 205 colon, in the experiment on HOP-92 NSCLC, with HS 578T breast, in the experiment on HT29 colon and with M14 melanoma was more than 100 µM each time. For the same molecule, the TGI with MCF7 breast, in the experiment on NCI-H23 lung, in the experiment on NCI-H522 lung and in the experiment with SNB-19 CNS was more than 100 µM each time.
`CCCN(CCC)c1ccc(/C=C/c2ccc3cc(OCC)ccc3n2)cc1`: the GI50 in the experiment with CCRF-CEM leukemia was 54.3 µM; with COLO 205 colon it was more than 100 µM; with HOP-92 NSCLC it was more than 100 µM; in the experiment on HS 578T breast, more than 100 µM; in the experiment on HT29 colon, 15 µM; in the experiment on M14 melanoma, more than 100 µM. For the same molecule, the GI50 in the experiment on MCF7 breast was more than 100 µM; with NCI-H23 lung it was 36.7 µM; in the experiment with NCI-H522 lung, 35.1 µM; in the experiment on SNB-19 CNS, more than 100 µM. Besides, the TGI in the experiment with CCRF-CEM leukemia, in the experiment on COLO 205 colon, in the experiment on HOP-92 NSCLC, in the experiment on HS 578T breast, in the experiment with HT29 colon and with M14 melanoma was more than 100 µM each time. The TGI in the experiment with MCF7 breast, with NCI-H23 lung, with NCI-H522 lung and in the experiment on SNB-19 CNS was more than 100 µM throughout.
As to `CNC(=S)NC(=O)c1c(Cl)n(C(=O)OC(C)(C)C)c2ccccc12`, the GI50 in the experiment on CCRF-CEM leukemia is 35.4 µM; with COLO 205 colon, 59.6 µM; with HOP-92 NSCLC, 15.1 µM; with HS 578T breast, 45.8 µM; in the experiment on HT29 colon, 56.7 µM; in the experiment on M14 melanoma it was 83 µM. The GI50 in the experiment on MCF7 breast is 28.3 µM; in the experiment with NCI-H23 lung, 53.1 µM; with NCI-H522 lung, 30.6 µM; in the experiment on SNB-19 CNS, 79.9 µM. The TGI in the experiment on CCRF-CEM leukemia was more than 100 µM; with COLO 205 colon, more than 100 µM; in the experiment with HOP-92 NSCLC it was 85.1 µM; in the experiment on HS 578T breast, more than 100 µM; in the experiment on HT29 colon, more than 100 µM; in the experiment on M14 melanoma, more than 100 µM. In addition, the TGI with MCF7 breast was more than 100 µM; in the experiment with NCI-H23 lung, more than 100 µM; with NCI-H522 lung, 90.9 µM; in the experiment on SNB-19 CNS, more than 100 µM.
Turning to `Cc1ccc(Cc2cnc(NC(=O)/C=C/c3cccc(C)c3)s2)cc1`, the GI50 in the experiment with CCRF-CEM leukemia was 0.0893 µM; in the experiment on COLO 205 colon it was 0.355 µM; in the experiment on HOP-92 NSCLC, 0.0793 µM; with HS 578T breast, 0.212 µM; with HT29 colon, 0.135 µM; with M14 melanoma it was 0.0808 µM. For the same molecule, the GI50 with MCF7 breast is 0.103 µM; in the experiment on NCI-H23 lung, 0.322 µM; with NCI-H522 lung, 0.151 µM; in the experiment with SNB-19 CNS, 0.224 µM. The TGI is more than 53.6 µM with CCRF-CEM leukemia; more than 100 µM in the experiment on COLO 205 colon; more than 57 µM with HOP-92 NSCLC; 5.86 µM in the experiment with HS 578T breast; 5.85 µM in the experiment on HT29 colon; 0.843 µM with M14 melanoma. The TGI in the experiment with MCF7 breast was more than 100 µM; with NCI-H23 lung, more than 50.1 µM; in the experiment on NCI-H522 lung, more than 100 µM; in the experiment with SNB-19 CNS, 23.1 µM.
For `C=C1C(=O)O[C@H]2[C@H]1CC/C(COC(=O)c1cc3ccccc3o1)=C\CC[C@@]1(C)O[C@@H]21`, the GI50 was 0.335 µM in the experiment with CCRF-CEM leukemia; 1.55 µM with COLO 205 colon; 1.44 µM in the experiment with HOP-92 NSCLC; 2.91 µM with HS 578T breast; 0.829 µM with HT29 colon; 1.43 µM with M14 melanoma. In addition, the GI50 in the experiment with MCF7 breast was 0.395 µM; in the experiment with NCI-H23 lung it was 1.98 µM; with NCI-H522 lung, 0.68 µM; with SNB-19 CNS it was 3.16 µM. In addition, the TGI in the experiment on CCRF-CEM leukemia was determined as 4.03 µM; in the experiment with COLO 205 colon it was 3.15 µM; in the experiment with HOP-92 NSCLC, 3.1 µM; with HS 578T breast it was 10.9 µM; in the experiment on HT29 colon, 2.21 µM; in the experiment with M14 melanoma it was 3.13 µM. Moreover, the TGI in the experiment on MCF7 breast worked out at 2.18 µM; in the experiment with NCI-H23 lung, 4.75 µM; in the experiment on NCI-H522 lung, 2.39 µM; with SNB-19 CNS, 13.3 µM.
On to `C[C@@H](O)[C@H](NC(=O)N[C@@H](CC(N)=O)c1nc([C@@H](N)CO)no1)C(=O)O`, for which the GI50 in the experiment with CCRF-CEM leukemia, in the experiment on COLO 205 colon, in the experiment on HOP-92 NSCLC, in the experiment on HS 578T breast, with HT29 colon and with M14 melanoma was more than 100 µM throughout. In addition, the GI50 in the experiment on MCF7 breast, with NCI-H23 lung, in the experiment on NCI-H522 lung and with SNB-19 CNS was more than 100 µM in each case. Moreover, the TGI in the experiment with CCRF-CEM leukemia, in the experiment with COLO 205 colon, with HOP-92 NSCLC, in the experiment on HS 578T breast, with HT29 colon and with M14 melanoma was more than 100 µM each time. Besides, the TGI with MCF7 breast, with NCI-H23 lung, with NCI-H522 lung and in the experiment with SNB-19 CNS was more than 100 µM throughout.
Take `O=C1CC(=O)N(C(=O)c2nn(-c3ccc(Cl)cc3)cc2O)N1`: the GI50 is 0.41 µM in the experiment on CCRF-CEM leukemia; 0.748 µM in the experiment on COLO 205 colon; 0.508 µM in the experiment with HOP-92 NSCLC; 0.136 µM in the experiment with HS 578T breast; 0.585 µM with HT29 colon; 0.651 µM with M14 melanoma. Moreover, the GI50 in the experiment on MCF7 breast was 1.24 µM; with NCI-H23 lung, 0.493 µM; in the experiment with NCI-H522 lung, 0.299 µM; in the experiment on SNB-19 CNS, 0.5 µM. The TGI was 16.7 µM with CCRF-CEM leukemia; 3.99 µM in the experiment on COLO 205 colon; more than 100 µM with HOP-92 NSCLC; more than 100 µM in the experiment with HS 578T breast; more than 50.4 µM with HT29 colon; 27.8 µM in the experiment with M14 melanoma. For the same molecule, the TGI in the experiment on MCF7 breast was more than 100 µM; in the experiment with NCI-H23 lung, more than 100 µM; in the experiment with NCI-H522 lung it was 3.17 µM; in the experiment on SNB-19 CNS, more than 100 µM.
Consider `O=c1cc(N2CCN(CCCCCOc3cc(O)c4c(=O)cc(-c5ccccc5)oc4c3)CC2)c2ccccc2o1`, for which the GI50 with CCRF-CEM leukemia was 19.3 µM; in the experiment with COLO 205 colon, 70.5 µM; with HOP-92 NSCLC, 26.1 µM; with HS 578T breast it was more than 100 µM; in the experiment with HT29 colon it was 17.4 µM; with M14 melanoma it was 53.2 µM. Further, the GI50 was 83.1 µM in the experiment on MCF7 breast, 0.218 µM in the experiment on NCI-H23 lung, more than 100 µM in the experiment with NCI-H522 lung and more than 100 µM in the experiment on SNB-19 CNS. The TGI in the experiment with CCRF-CEM leukemia, with COLO 205 colon, with HOP-92 NSCLC, in the experiment with HS 578T breast, in the experiment with HT29 colon and with M14 melanoma was more than 100 µM throughout. For the same molecule, the TGI in the experiment with MCF7 breast is more than 100 µM; in the experiment on NCI-H23 lung, 0.475 µM; in the experiment with NCI-H522 lung, more than 100 µM; with SNB-19 CNS, more than 100 µM.
